The values below come from ChEMBL document CHEMBL5154925, “Design and Optimization of Thienopyrimidine Derivatives as Potent and Selective PI3Kδ Inhibitors for the Treatment of B-Cell Malignancies” (J Med Chem, 2022).

The test has as its target Phosphatidylinositol 4,5-bisphosphate 3-kinase catalytic subunit gamma isoform (Homo sapiens, UniProt P48736). Description: Inhibition of PI3Kgamma (unknown origin) using PIP2 as substrate measured after 1 hr in presence of ATP by ADP-glo luminescence assay. Background: ADP-Glo turns the ADP formed in a reaction into a luminescent signal.

Sequence of Phosphatidylinositol 4,5-bisphosphate 3-kinase catalytic subunit gamma isoform (P48736 whole entry, canonical isoform): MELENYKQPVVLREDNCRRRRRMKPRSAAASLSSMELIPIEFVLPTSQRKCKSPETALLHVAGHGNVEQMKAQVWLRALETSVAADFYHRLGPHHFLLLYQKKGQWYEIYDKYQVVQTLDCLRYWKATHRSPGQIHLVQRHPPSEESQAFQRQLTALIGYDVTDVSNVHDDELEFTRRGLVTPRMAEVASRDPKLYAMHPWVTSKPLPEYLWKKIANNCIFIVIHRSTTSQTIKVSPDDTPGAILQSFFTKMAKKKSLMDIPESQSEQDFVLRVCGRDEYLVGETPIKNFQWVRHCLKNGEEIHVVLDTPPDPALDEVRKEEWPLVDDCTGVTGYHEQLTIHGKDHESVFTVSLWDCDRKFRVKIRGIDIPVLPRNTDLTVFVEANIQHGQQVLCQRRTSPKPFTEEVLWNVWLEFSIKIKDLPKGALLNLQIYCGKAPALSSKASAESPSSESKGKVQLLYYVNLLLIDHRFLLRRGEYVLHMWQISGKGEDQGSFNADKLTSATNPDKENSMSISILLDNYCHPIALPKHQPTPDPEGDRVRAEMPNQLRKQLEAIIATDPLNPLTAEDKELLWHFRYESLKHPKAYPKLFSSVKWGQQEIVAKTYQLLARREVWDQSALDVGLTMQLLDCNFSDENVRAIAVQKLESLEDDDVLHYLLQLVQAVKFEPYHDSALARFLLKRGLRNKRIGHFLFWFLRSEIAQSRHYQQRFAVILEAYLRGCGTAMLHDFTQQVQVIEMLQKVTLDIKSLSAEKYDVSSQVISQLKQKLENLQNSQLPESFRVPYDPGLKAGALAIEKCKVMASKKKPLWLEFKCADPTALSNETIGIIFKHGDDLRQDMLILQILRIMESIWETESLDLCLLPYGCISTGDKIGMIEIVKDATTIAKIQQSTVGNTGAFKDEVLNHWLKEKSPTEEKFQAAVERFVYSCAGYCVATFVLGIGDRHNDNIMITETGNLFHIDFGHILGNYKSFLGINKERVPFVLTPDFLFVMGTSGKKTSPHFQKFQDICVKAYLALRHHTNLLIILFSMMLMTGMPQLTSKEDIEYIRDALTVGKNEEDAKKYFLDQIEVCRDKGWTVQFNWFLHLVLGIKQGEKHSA

As for `CCC(=O)N1CC[C@H](Nc2ncnc3sc(-c4cnc(OC)c(OC)c4)cc23)C1`, the IC50 – broadly, the concentration at which inhibition is half-maximal – is 2680 nM.
